Laboratory results: patent US20240158446A1, “CYCLIC COMPOUND HAVING SELECTIVE INHIBITORY ACTION ON KRAS OVER HRAS AND NRAS” (CHUGAI SEIYAKU KABUSHIKI KAISHA, priority 2021, published 2024)

Columns and labels:
[1] = molecular target: GDP-bound NRAS wild-type protein (Homo sapiens, UniProt P01111); test: Binding to NRAS by surface plasmon resonance (SPR), Single Cycle Kinetics; conditions: SPR KD ratio NRAS/KRAS, class symbols
[2] = molecular target: GDP-bound HRAS wild-type protein (Homo sapiens, UniProt P01112); test: Binding to HRAS by surface plasmon resonance (SPR), Single Cycle Kinetics; conditions: SPR KD ratio HRAS/KRAS, class symbols
Sequence of GDP-bound HRAS wild-type protein (P01112 whole entry): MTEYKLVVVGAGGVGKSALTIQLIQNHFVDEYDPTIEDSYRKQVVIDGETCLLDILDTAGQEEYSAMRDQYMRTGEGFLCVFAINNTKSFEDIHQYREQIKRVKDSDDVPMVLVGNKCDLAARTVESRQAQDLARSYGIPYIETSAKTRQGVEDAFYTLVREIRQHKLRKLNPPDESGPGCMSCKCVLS

Sequence of GDP-bound NRAS wild-type protein (P01111 whole entry): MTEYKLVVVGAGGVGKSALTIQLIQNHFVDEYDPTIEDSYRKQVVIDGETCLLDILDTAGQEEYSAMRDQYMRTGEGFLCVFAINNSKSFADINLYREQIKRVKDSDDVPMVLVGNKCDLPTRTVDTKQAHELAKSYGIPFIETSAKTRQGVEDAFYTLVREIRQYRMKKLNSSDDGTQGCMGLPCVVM

| SMILES | NRAS/KRAS (ratio of KD value with respect to GDP-bound NRAS wild-type protein to KD value with respect to KRAS) [1] | HRAS/KRAS (ratio of KD value with respect to GDP-bound HRAS wild-type protein to KD value with respect to KRAS) [2] |
| --- | --- | --- |
| CCC[C@H]1C(=O)N[C@@H]([C@@H](C)CC)C(=O)N(C2CC2)CC(=O)N(C)[C@H]2C/C=C\CCN(C2=O)[C@@H](Cc2ccc(C)cc2)C(=O)N(C)CC(=O)N[C@@H](CCc2ccc(C3CC3)c(OC)c2)C(=O)N2C[C@H](OCC)C[C@H]2C(=O)NC2(CC(C)(C)C2)C(=O)N(C)[C@@H](C2CCCC2)C(=O)N(C)[C@H](C(=O)N(C)C)CC(=O)N1C [PP2883] | A (a compound having 10 or more and less than 20 is denoted as A) | A (a compound having 10 or more and less than 20 is denoted as A) |
| CCC[C@H]1C(=O)N[C@@H]([C@@H](C)CC)C(=O)N(C2CC2)CC(=O)N(C)[C@H]2C/C=C\CCN(C2=O)[C@@H](Cc2ccc(C)cc2)C(=O)N(C)CC(=O)N[C@@H](CCc2ccc(C3CC3)c(F)c2)C(=O)N2C[C@H](OCC)C[C@H]2C(=O)NC2(CC(C)(C)C2)C(=O)N(C)[C@@H](C2CCCC2)C(=O)N(C)[C@H](C(=O)N(C)C)CC(=O)N1C [PP2884] | A (a compound having 10 or more and less than 20 is denoted as A) | A (a compound having 10 or more and less than 20 is denoted as A) |
| CCC[C@H]1C(=O)N[C@@H]([C@@H](C)CC)C(=O)N(C2CC2)CC(=O)N(C)[C@H]2C/C=C\CCN(C2=O)[C@@H](Cc2ccc(C)cc2)C(=O)N(C)CC(=O)N[C@@H](CCc2ccc(C3CC3)c(Cl)c2)C(=O)N2C[C@H](OCC)C[C@H]2C(=O)NC2(CC(C)(C)C2)C(=O)N(C)[C@@H](C2CCCC2)C(=O)N(C)[C@H](C(=O)N(C)C)CC(=O)N1C [PP2885] | A (a compound having 10 or more and less than 20 is denoted as A) | A (a compound having 10 or more and less than 20 is denoted as A) |
| CCC[C@H]1C(=O)N[C@@H]([C@@H](C)CC)C(=O)N(C2CC2)CC(=O)N(C)[C@H]2C/C=C\CCN(C2=O)[C@@H](Cc2ccc(C)cc2)C(=O)N(C)CC(=O)N[C@@H](CCc2ccc(C3CC3)c(C)c2)C(=O)N2C[C@H](OCC)C[C@H]2C(=O)NC2(CC(C)(C)C2)C(=O)N(C)[C@@H](C2CCCC2)C(=O)N(C)[C@H](C(=O)N(C)C)CC(=O)N1C [PP2886] | A (a compound having 10 or more and less than 20 is denoted as A) | A (a compound having 10 or more and less than 20 is denoted as A) |
| CCC[C@H]1C(=O)N[C@@H]([C@@H](C)CC)C(=O)N(C)CC(=O)N(C)[C@H]2C/C=C\CCN(C2=O)[C@@H](Cc2ccc(C)cc2)C(=O)N(C)CC(=O)N[C@@H](CCc2ccc3sc(C)c(C)c3c2)C(=O)N2C[C@H](OCC)C[C@H]2C(=O)NC2(CC(C)(C)C2)C(=O)N(C)[C@@H](C2CCCC2)C(=O)N(C)[C@H](C(=O)N(C)C)CC(=O)N1C [PP2891] | A (a compound having 10 or more and less than 20 is denoted as A) | B (a compound having 3 or more and less than 10 is denoted as B) |
| CCC[C@H]1C(=O)N[C@@H]([C@@H](C)CC)C(=O)N(C)CC(=O)N(C)[C@H]2C/C=C\CCN(C2=O)[C@@H](Cc2ccc(C(F)(F)F)cc2)C(=O)N(C)CC(=O)N[C@@H](CCc2ccc3c(C)c(C)n(C)c3c2)C(=O)N2C[C@H](OCC)C[C@H]2C(=O)NC2(CC(C)(C)C2)C(=O)N(C)[C@@H](C(CC)CC)C(=O)N(C)[C@H](C(=O)N(C)C)CC(=O)N1C [PP2904] | AA (a compound having 20 or more is denoted as AA) | A (a compound having 10 or more and less than 20 is denoted as A) |
| CCC[C@H]1C(=O)N[C@@H]([C@@H](C)CC)C(=O)N(C)CC(=O)N(C)[C@H]2C/C=C\CCN(C2=O)[C@@H](Cc2ccc(C)cc2)C(=O)N(C)CC(=O)N[C@@H](CCc2ccc3c(C)c(C)n(C)c3c2)C(=O)N2C[C@H](OCC)C[C@H]2C(=O)NC2(CC(C)(C)C2)C(=O)N(C)[C@@H](C(CC)CC)C(=O)N(C)[C@H](C(=O)N(C)C)CC(=O)N1C [PP2906] | A (a compound having 10 or more and less than 20 is denoted as A) | A (a compound having 10 or more and less than 20 is denoted as A) |
| CCC[C@H]1C(=O)N[C@@H]([C@@H](C)CC)C(=O)N(C)CC(=O)N(C)[C@H]2C/C=C\CCN(C2=O)[C@@H](Cc2ccc(C)cc2)C(=O)N(C)CC(=O)N[C@@H](CCc2ccc3c(C)cn(C)c3c2)C(=O)N2C[C@H](OCC)C[C@H]2C(=O)NC2(CC(C)(C)C2)C(=O)N(C)[C@@H](C(CC)CC)C(=O)N(C)[C@H](C(=O)N(C)C)CC(=O)N1C [PP2910] | AA (a compound having 20 or more is denoted as AA) | A (a compound having 10 or more and less than 20 is denoted as A) |
| CCC(CC)[C@H]1C(=O)N(C)[C@H](C(=O)N(C)C)CC(=O)N(C)[C@@H](COC)C(=O)N[C@@H]([C@@H](C)CC)C(=O)N(C)CC(=O)N(C)[C@H]2C/C=C\CCN(C2=O)[C@@H](Cc2ccc(C)cc2)C(=O)N(C)CC(=O)N[C@@H](CCc2cc(F)c(C(F)(F)F)c(F)c2)C(=O)N2CCCC[C@H]2C(=O)NC2(CC(C)(C)C2)C(=O)N1C [PP2922] | AA (a compound having 20 or more is denoted as AA) | A (a compound having 10 or more and less than 20 is denoted as A) |
| CCC(CC)[C@H]1C(=O)N(C)[C@H](C(=O)N(C)C)CC(=O)N(C)[C@@H](COC)C(=O)N[C@@H]([C@@H](C)CC)C(=O)N(C)CC(=O)N(C)[C@H]2C/C=C\CCN(C2=O)[C@@H](Cc2ccc(C)cc2)C(=O)N(C)CC(=O)N[C@@H](CCc2ccc(C(F)(F)F)c(Cl)c2)C(=O)N2CCCC[C@H]2C(=O)NC2(CC(C)(C)C2)C(=O)N1C [PP2931] | A (a compound having 10 or more and less than 20 is denoted as A) | A (a compound having 10 or more and less than 20 is denoted as A) |
| CCC(CC)[C@H]1C(=O)N(C)[C@H](C(=O)N(C)C)CC(=O)N(C)[C@@H](COC)C(=O)N[C@@H]([C@@H](C)CC)C(=O)N(C)CC(=O)N(C)[C@H]2C/C=C\CCN(C2=O)[C@@H](Cc2ccc(C)cc2)C(=O)N(C)CC(=O)N[C@@H](CCc2ccc(C(F)(F)F)c(OC)c2)C(=O)N2CCCC[C@H]2C(=O)NC2(CC(C)(C)C2)C(=O)N1C [PP2937] | A (a compound having 10 or more and less than 20 is denoted as A) | A (a compound having 10 or more and less than 20 is denoted as A) |
